Results: patent US10314820B2, “Imidazole-based heterocyclic compounds” (priority 2014, dated 2019)
≈ marks a conversion by molar mass, not a printed value.

Legend:
Assay type in all cases: cell-based
[1] = tested on: Human hepatocytes (HepaRG cells); experiment: Human cytotoxicity assay in vitro (CellTiter-Glo), hepatocytes; conditions: hepatocyte cytotoxicity score; 24 h exposure
[2] = tested on: Human keratinocytes (HaCaT cells); experiment: Human cytotoxicity assay in vitro (CellTiter-Glo), keratinocytes; conditions: keratinocyte cytotoxicity score; 24 h exposure
[3] = tested on: linezolid-resistant Staphylococcus aureus (from MRSA, COL); experiment: microbe, parasite or virus in culture; conditions: Staphylococcus aureus, MRSA, read-out: MIC for the resistant strain
[4] = tested on: vancomycin-resistant Staphylococcus aureus (from MRSA, COL); experiment: microbe, parasite or virus in culture; conditions: Staphylococcus aureus, MRSA, read-out: MIC for the resistant strain

Row | SMILES | cytotoxicity cell line H [1] | cytotoxicity cell line K [2] | MIC [3] | MIC [4]
1 | Cc1[nH]c(-c2ccc(-c3ccc(Cl)cc3)s2)nc1-c1ccccc1 [Compound 6] | 0 (compounds without signs of cell viability loss at concentrations of 50 μM or higher) | 0 (compounds not causing loss of cell viability at concentrations of 50 μM or higher) |  | 
2 | Cc1[nH]c(-c2ccc(-c3ccc(F)cc3)s2)nc1-c1ccccc1 [Compound 7] | 1 (compounds not causing a loss of viability at concentrations between 25 and 50 μM) | 2 (compounds causing>50% inhibition of cell viability at 25 μM) |  | 
3 | Cc1[nH]c(-c2cc(C)n(-c3ccc(Cl)cc3)c2C)nc1-c1ccccc1 [Compound 8] | 2 | 1 (compounds causing less than 50% inhibition of cell viability at 50 μM) |  | 
4 | Cc1[nH]c(-c2cc(C)n(-c3ccc(F)cc3F)c2C)nc1-c1ccccc1 [Compound 9] | 3 | 2 (compounds causing>50% inhibition of cell viability at 25 μM) |  | 
5 | Cc1[nH]c(-c2cc(C)n(-c3ccc(F)c(F)c3F)c2C)nc1-c1ccccc1 [Compound 10] | 3 | 2 (compounds causing>50% inhibition of cell viability at 25 μM) |  | 
6 | Cc1[nH]c(-c2csc(-c3ccc(F)cc3)n2)nc1-c1ccccc1 [Compound 11] | 1 (compounds not causing a loss of viability at concentrations between 25 and 50 μM) | 2 (compounds causing>50% inhibition of cell viability at 25 μM) |  | 
7 | Cc1[nH]c(-c2ccc(-c3cccc(Cl)c3)s2)nc1-c1ccccc1 [Compound 12] | 1 (compounds not causing a loss of viability at concentrations between 25 and 50 μM) | 2 (compounds causing>50% inhibition of cell viability at 25 μM) |  | 
8 | Cc1[nH]c(-c2ccc(-c3cccc(Br)c3)s2)nc1-c1ccccc1 [Compound 13] | 1 (compounds not causing a loss of viability at concentrations between 25 and 50 μM) | 1 (compounds causing less than 50% inhibition of cell viability at 50 μM) |  | 
9 | Cc1[nH]c(-c2csc(-c3cccc(Br)c3)n2)nc1-c1ccccc1 [Compound 14] | 1 (compounds not causing a loss of viability at concentrations between 25 and 50 μM) | 1 (compounds causing less than 50% inhibition of cell viability at 50 μM) |  | 
10 | Cc1nc(-c2ccc(-c3ccc(Cl)cc3Cl)o2)[nH]c1-c1ccc(F)cc1 [Compound 16] | 3 | 1 (compounds causing less than 50% inhibition of cell viability at 50 μM) |  | 
11 | Cc1nc(-c2ccc(-c3ccccc3C(F)(F)F)o2)[nH]c1-c1ccccc1Cl [Compound 20] | 3 | 0 (compounds not causing loss of cell viability at concentrations of 50 μM or higher) |  | 
12 | Cc1nc(-c2ccc(-c3ccccc3OC(F)(F)F)o2)[nH]c1-c1cccc(Cl)c1 [Compound 21] | 3 | 2 (compounds causing>50% inhibition of cell viability at 25 μM) |  | 
13 | Cc1[nH]c(-c2ccc(-c3ccccc3C(F)(F)F)o2)nc1-c1cccc(Cl)c1 [Compound 22] |  | 2 (compounds causing>50% inhibition of cell viability at 25 μM) |  | 
14 | Cc1[nH]c(-c2ccc(-c3ccccc3C(F)(F)F)o2)nc1-c1ccc(Br)cc1 [Compound 25] | 0 (compounds without signs of cell viability loss at concentrations of 50 μM or higher) | 0 (compounds not causing loss of cell viability at concentrations of 50 μM or higher) |  | 
15 | Cc1[nH]c(-c2ccc(-c3ccccc3OC(F)(F)F)o2)nc1-c1ccc(C(F)(F)F)cc1 [Compound 26] | 1 (compounds not causing a loss of viability at concentrations between 25 and 50 μM) | 0 (compounds not causing loss of cell viability at concentrations of 50 μM or higher) |  | 
16 | C#Cc1ccc(-c2nc(-c3ccc(-c4ccccc4C(F)(F)F)o3)[nH]c2C)cc1 [Compound 27] | 1 (compounds not causing a loss of viability at concentrations between 25 and 50 μM) | 2 (compounds causing>50% inhibition of cell viability at 25 μM) |  | 
17 | CCc1ccc(-c2[nH]c(-c3ccc(-c4ccccc4C(F)(F)F)o3)nc2C)cc1 [Compound 28] | 1 (compounds not causing a loss of viability at concentrations between 25 and 50 μM) | 0 (compounds not causing loss of cell viability at concentrations of 50 μM or higher) |  | 
18 | Cc1[nH]c(-c2ccc(-c3ccccc3OC(F)(F)F)o2)nc1Cc1ccc(Br)cc1 [Compound 30, 4-(4-Bromo-benzyl)-5-methyl-2-[5-(2-trifluoromethoxy-phenyl)-furan-2-yl]-1H-imidazole] | 3 | 3 (compounds causing more than 50% inhibition of cell viability at 10 μM) |  | 
19 | Cc1[nH]c(-c2ccn(-c3ccccc3C(F)(F)F)c2)nc1-c1ccccc1 [Compound 33] |  | 3 (compounds causing more than 50% inhibition of cell viability at 10 μM) |  | 
20 | Cc1[nH]c(-c2cc(C)n(-c3cccc(C(F)(F)F)c3)c2C)nc1-c1ccccc1 [Compound 36] | 3 | 2 (compounds causing>50% inhibition of cell viability at 25 μM) |  | 

Row | SMILES | cytotoxicity cell line H [1] | cytotoxicity cell line K [2] | MIC [3] | MIC [4]
21 | Cc1nc(-c2ccc(-c3cccc(OC(F)(F)F)c3)o2)[nH]c1-c1ccc(F)cc1 [Compound 37] | 3 | 2 (compounds causing>50% inhibition of cell viability at 25 μM) |  | 
22 | Cc1[nH]c(-c2ccc(-c3cccc(C(F)(F)F)c3)o2)nc1-c1ccc(F)cc1 [Compound 38] | 1 (compounds not causing a loss of viability at concentrations between 25 and 50 μM) | 2 (compounds causing>50% inhibition of cell viability at 25 μM) |  | 
23 | Cc1nc(-c2ccc(-c3ccc(Cl)c(OC(F)(F)F)c3)o2)[nH]c1-c1ccc(F)cc1 [Compound 43] | 3 |  |  | 
24 | Cc1[nH]c(-c2ccc(-c3ccc(C(F)(F)F)cc3)s2)nc1-c1ccccc1 [Compound 46] | 1 (compounds not causing a loss of viability at concentrations between 25 and 50 μM) | 1 (compounds causing less than 50% inhibition of cell viability at 50 μM) |  | 
25 | Cc1[nH]c(-c2ccc(-c3ccc(OC(F)(F)F)cc3)o2)nc1-c1ccc(Cl)cc1 [Compound 48] | 2 | 1 (compounds causing less than 50% inhibition of cell viability at 50 μM) |  | 
26 | Cc1[nH]c(-c2ccc(-c3ccc(OC(F)(F)F)cc3Cl)o2)nc1-c1ccc(F)cc1 [Compound 51] | 3 | 3 (compounds causing more than 50% inhibition of cell viability at 10 μM) |  | 
27 | Cc1ccc(-c2ccc(-c3nc(-c4ccccc4)c(C)[nH]3)s2)cc1 [Compound 54] | 1 (compounds not causing a loss of viability at concentrations between 25 and 50 μM) | 1 (compounds causing less than 50% inhibition of cell viability at 50 μM) |  | 
28 | Cc1ccc(-c2ncc(-c3nc(-c4ccccc4)c(C)[nH]3)s2)cc1 [Compound 55] | 1 (compounds not causing a loss of viability at concentrations between 25 and 50 μM) |  |  | 
29 | Cc1ccc(-c2nc(-c3nc(-c4ccccc4)c(C)[nH]3)cs2)cc1 [Compound 56] | 1 (compounds not causing a loss of viability at concentrations between 25 and 50 μM) | 3 (compounds causing more than 50% inhibition of cell viability at 10 μM) |  | 
30 | Cc1ccc(-c2nc(-c3nc(-c4ccccc4)c(C)[nH]3)co2)cc1 [Compound 57] | 1 (compounds not causing a loss of viability at concentrations between 25 and 50 μM) | 3 (compounds causing more than 50% inhibition of cell viability at 10 μM) |  | 
31 | Cc1[nH]c(-c2cc(C)n(-c3ccc(C(C)C)cc3)c2C)nc1-c1ccccc1 [Compound 58] | 3 | 2 (compounds causing>50% inhibition of cell viability at 25 μM) |  | 
32 | Cc1[nH]c(-c2cc(C)n(-c3ccc4c(c3)CCC4)c2C)nc1-c1ccccc1 [Compound 59] | 2 | 2 (compounds causing>50% inhibition of cell viability at 25 μM) |  | 
33 | FC(F)(F)Oc1ccccc1-c1ccc(-c2ncc(-c3ccccc3)[nH]2)o1 [Compound 63] | 2 |  |  | 
34 | FC(F)(F)c1ccccc1-c1ccc(-c2nc(Cl)c(-c3ccccc3)[nH]2)o1 [Compound 65] | 2 |  |  | 
35 | FC(F)(F)Oc1ccccc1-c1ccc(-c2nc(-c3ccccc3Cl)c[nH]2)o1 [Compound 67] | 2 | 2 (compounds causing>50% inhibition of cell viability at 25 μM) |  | 
36 | FC(F)(F)Oc1ccccc1-c1ccc(-c2nc(-c3ccc(Cl)cc3Cl)c[nH]2)o1 [Compound 68] | 2 | 2 (compounds causing>50% inhibition of cell viability at 25 μM) |  | 
37 | Cc1[nH]c(-c2coc(-c3ccccc3C(F)(F)F)c2)nc1-c1ccccc1 [Compound 72] | 3 | 2 (compounds causing>50% inhibition of cell viability at 25 μM) |  | 
38 | Cc1[nH]c(-c2ccc(-c3ccccc3)s2)nc1-c1ccccc1 [Compound 74] | 1 (compounds not causing a loss of viability at concentrations between 25 and 50 μM) | 3 (compounds causing more than 50% inhibition of cell viability at 10 μM) |  | 
39 | CC(=O)NC[C@H]1CN(c2ccc(N3CCOCC3)c(F)c2)C(=O)O1 [linezolid, reference compound] |  |  | 7.5 µg/mL (≈ 22.2 µM) | 
40 | CN[C@H](CC(C)C)C(=O)N[C@H]1C(=O)N[C@@H](CC(N)=O)C(=O)N[C@H]2C(=O)N[C@H]3C(=O)N[C@H](C(=O)N[C@H](C(=O)O)c4cc(O)cc(O)c4-c4cc3ccc4O)[C@H](O)c3ccc(c(Cl)c3)Oc3cc2cc(c3O[C@@H]2O[C@H](CO)[C@@H](O)[C@H](O)[C@H]2O[C@H]2C[C@](C)(N)[C@H](O)[C@H](C)O2)Oc2ccc(cc2Cl)[C@H]1O [vancomycin, Vancomycin, reference compound] |  |  |  | 20 µg/mL (≈ 13.8 µM)
